{"source": "paper PMC8399443", "about": "“Synthesis, Biological Evaluation, and In Silico Modeling of N-Substituted Quinoxaline-2-Carboxamides” (Pharmaceuticals, 2021)", "key": {"Mtb H37Ra [1]": {"system": "Mtb H37Ra", "settings": "cited from earlier work"}, "C. parapsilosis": {"system": "C. parapsilosis", "assay": "In vitro antifungal activity, microdilution broth (EUCAST)", "format": "cell-based, Candida parapsilosis", "settings": "Lodderomyces parapsilosis"}, "L. corymbifera": {"system": "L. corymbifera", "assay": "In vitro antifungal activity, microdilution broth (EUCAST)", "format": "cell-based", "settings": "Lichtheimia corymbifera"}, "T. interdigitale": {"system": "T. interdigitale", "assay": "In vitro antifungal activity, microdilution broth (EUCAST)", "format": "cell-based", "settings": "Trichophyton interdigitale"}, "C. tropicalis": {"system": "C. tropicalis", "assay": "In vitro antifungal activity, microdilution broth (EUCAST)", "format": "cell-based", "settings": "Candida tropicalis"}, "A. flavus": {"system": "A. flavus", "assay": "In vitro antifungal activity, microdilution broth (EUCAST)", "format": "cell-based", "settings": "Aspergillus flavus"}, "C. albicans": {"system": "C. albicans", "assay": "In vitro antifungal activity, microdilution broth (EUCAST)", "format": "cell-based", "settings": "Candida albicans"}, "A. fumigatus": {"system": "A. fumigatus", "assay": "In vitro antifungal activity, microdilution broth (EUCAST)", "format": "cell-based", "settings": "Aspergillus fumigatus"}, "C. krusei": {"system": "C. krusei", "assay": "In vitro antifungal activity, microdilution broth (EUCAST)", "format": "cell-based, Candida krusei", "settings": "Pichia kudriavzevii"}, "E. coli": {"system": "E. coli", "assay": "In vitro antibacterial activity, microdilution broth (EUCAST)", "format": "cell-based", "settings": "Escherichia coli"}, "[2]": {"system": "human glioblastoma U-87 MG cell line", "assay": "In vitro cytotoxicity", "format": "cell-based", "settings": "24 h, read-out: Cytotoxicity IC50 U-87 MG"}, "M. smegmatis": {"system": "M. smegmatis", "assay": "In vitro antimycobacterial activity, MABA", "format": "cell-based, Mycobacterium smegmatis", "settings": "Mycolicibacterium smegmatis; MABA; read-out: MIC M. smeg"}, "[3]": {"system": "human epithelial kidney cancer A498 cell line", "assay": "In vitro cytotoxicity", "format": "cell-based", "settings": "A498, 24 h, read-out: Cytotoxicity IC50 A498"}, "S. marcescens": {"system": "S. marcescens", "assay": "In vitro antibacterial activity, microdilution broth (EUCAST)", "format": "cell-based", "settings": "Serratia marcescens"}, "S. aureus": {"system": "S. aureus", "assay": "In vitro antibacterial activity, microdilution broth (EUCAST)", "format": "cell-based", "settings": "Staphylococcus aureus"}, "K. pneumoniae": {"system": "K. pneumoniae", "assay": "In vitro antibacterial activity, microdilution broth (EUCAST)", "format": "cell-based", "settings": "Klebsiella pneumoniae"}, "[4]": {"assay": "In vitro cytotoxicity, non-cancerous cells", "format": "cell-based", "settings": "human, HK-2 kidney cortex proximal tubule cells (non-cancerous); 24 hours incubation"}, "HepG2 cell line": {"system": "HepG2 cell line", "assay": "In vitro cytotoxicity, CellTiter 96 (MTS)", "format": "cell-based", "settings": "Homo sapiens, read-out: HepG2 IC50"}, "[5]": {"system": "human ovarian cancer SK-OV-3 cell line", "assay": "In vitro cytotoxicity", "format": "cell-based", "settings": "SK-OV-3, 24 h, read-out: Cytotoxicity IC50 SK-OV-3"}, "E. faecalis": {"system": "E. faecalis", "assay": "In vitro antibacterial activity, microdilution broth (EUCAST)", "format": "cell-based", "settings": "Enterococcus faecalis"}, "M. aurum": {"system": "M. aurum", "assay": "In vitro antimycobacterial activity, MABA", "format": "cell-based, Mycobacterium aurum", "settings": "Mycolicibacterium aurum; MABA; read-out: MIC M. aurum"}, "[6]": {"system": "human prostate cancer PC-3 cell line", "assay": "In vitro cytotoxicity", "format": "cell-based", "settings": "PC-3, 24 h, read-out: Cytotoxicity IC50 PC-3"}, "S. epidermidis": {"system": "S. epidermidis", "assay": "In vitro antibacterial activity, microdilution broth (EUCAST)", "format": "cell-based", "settings": "Staphylococcus epidermidis"}, "Mtb H37Ra [7]": {"system": "Mtb H37Ra", "assay": "In vitro antimycobacterial activity, Microplate Alamar Blue Assay (MABA)", "format": "cell-based, Mycobacterium tuberculosis", "settings": "Mycobacterium tuberculosis, H37RA, read-out: MIC Mtb H37Ra"}, "MRSA": {"system": "MRSA", "assay": "In vitro antibacterial activity, microdilution broth (EUCAST)", "format": "cell-based, Staphylococcus aureus methicillin resistant", "settings": "Staphylococcus aureus"}, "P. aeruginosa": {"system": "P. aeruginosa", "assay": "In vitro antibacterial activity, microdilution broth (EUCAST)", "format": "cell-based", "settings": "Pseudomonas aeruginosa"}, "[8]": {"settings": "48 h, standards, read-out: MIC Lichtheimia corymbifera"}, "[9]": {"settings": "72 h, standards, read-out: MIC Trichophyton interdigitale"}, "[10]": {"settings": "48 h, standards, read-out: MIC Aspergillus flavus"}, "[11]": {"settings": "48 h, standards, read-out: MIC Candida albicans"}, "[12]": {"settings": "48 h, standards, read-out: MIC Aspergillus fumigatus"}}, "note": "Where “and” joins values, the source holds several entries; their conditions need not be identical. Equal values may be shown once. Read-outs that look alike come from different tables or passages of the source."}
{"smiles": "CC(=O)Oc1ccc(COC(=O)c2cnc3ccccc3n2)cc1", "note": "[4-acetoxybenzyl quinoxaline-2-carboxylate]", "values": [{"measurement": "MIC for Mtb H37Ra", "setting": "Mtb H37Ra [1]; Figure 2b", "result": 0.5, "unit": "mg/L"}]}
{"smiles": "C[C@@H]1[C@H](O)[C@@H](C)/C=C/C=C/C=C/C=C/C=C/C=C/C=C/[C@H](O[C@@H]2O[C@H](C)[C@@H](O)[C@H](N)[C@@H]2O)C[C@@H]2O[C@](O)(C[C@@H](O)C[C@@H](O)[C@H](O)CC[C@@H](O)C[C@@H](O)CC(=O)O[C@H]1C)C[C@H](O)[C@H]2C(=O)O", "note": "[amphotericin B]", "values": [{"measurement": "MIC", "setting": "C. parapsilosis; 48 h, standards", "result": 0.5, "unit": "mg/L"}, {"measurement": "MIC", "setting": "L. corymbifera; [8]", "result": 0.5, "unit": "mg/L"}, {"measurement": "MIC", "setting": "T. interdigitale; [9]", "result": 2, "unit": "mg/L"}, {"measurement": "MIC", "setting": "C. tropicalis; 48 h, standards", "result": 1, "unit": "mg/L"}, {"measurement": "MIC", "setting": "A. flavus; [10]", "result": 8, "unit": "mg/L"}, {"measurement": "MIC", "setting": "C. albicans; [11]", "result": 0.5, "unit": "mg/L"}, {"measurement": "MIC", "setting": "A. fumigatus; [12]", "result": 1, "unit": "mg/L"}, {"measurement": "MIC", "setting": "C. krusei; 48 h, standards", "result": 1, "unit": "mg/L"}]}
{"smiles": "C[C@@H](c1ncncc1F)[C@](O)(Cn1cncn1)c1ccc(F)cc1F", "note": "[voriconazole]", "values": [{"measurement": "MIC", "setting": "C. parapsilosis; 48 h, standards", "result": 8, "unit": "mg/L"}, {"measurement": "MIC", "setting": "L. corymbifera; [8]", "result": "> 16", "unit": "mg/L"}, {"measurement": "MIC", "setting": "T. interdigitale; [9]", "result": "> 16", "unit": "mg/L"}, {"measurement": "MIC", "setting": "C. tropicalis; 48 h, standards", "result": "> 16", "unit": "mg/L"}, {"measurement": "MIC", "setting": "A. flavus; [10]", "result": "> 16", "unit": "mg/L"}, {"measurement": "MIC", "setting": "C. albicans; [11]", "result": "> 16", "unit": "mg/L"}, {"measurement": "MIC", "setting": "A. fumigatus; [12]", "result": 1, "unit": "mg/L"}, {"measurement": "MIC", "setting": "C. krusei; 48 h, standards", "result": 0.5, "unit": "mg/L"}]}
{"smiles": "O=C(NCc1cccc2ccccc12)c1cnc2ccccc2n1", "note": "[Compound 29, N-(naphthalen-1-ylmethyl)quinoxaline-2-carboxamide]", "values": [{"measurement": "MIC", "setting": "E. coli; read-out: MIC E. coli", "result": "≥ 500", "unit": "µM"}, {"measurement": "MIC", "setting": "C. parapsilosis", "result": "≥ 500", "unit": "µM"}, {"measurement": "IC50", "setting": "[2]", "result": "> 250", "unit": "µM"}, {"measurement": "MIC", "setting": "M. smegmatis", "result": "≥ 125 µg/mL and ≥ 399 µM"}, {"measurement": "IC50", "setting": "[3]", "result": "> 250", "unit": "µM"}, {"measurement": "MIC", "setting": "L. corymbifera; read-out: MIC L. corymbifera", "result": "≥ 500", "unit": "µM"}, {"measurement": "MIC", "setting": "S. marcescens; read-out: MIC S. marcescens", "result": "≥ 500", "unit": "µM"}, {"measurement": "MIC", "setting": "S. aureus; read-out: MIC S. aureus", "result": "≥ 500", "unit": "µM"}, {"measurement": "MIC", "setting": "K. pneumoniae; read-out: MIC K. pneumoniae", "result": "≥ 500", "unit": "µM"}, {"measurement": "IC50 at 24 h", "setting": "[4]", "result": "> 250", "unit": "µM"}, {"measurement": "IC50", "setting": "HepG2 cell line; HepG2, cytotoxicity, 24 h incubation, CellTiter 96", "result": 37.3, "unit": "µM"}, {"measurement": "MIC", "setting": "T. interdigitale; read-out: MIC T. interdigitale", "result": "≥ 500", "unit": "µM"}, {"measurement": "MIC", "setting": "C. tropicalis", "result": "≥ 500", "unit": "µM"}, {"measurement": "IC50", "setting": "[5]", "result": 49.6, "unit": "µM"}, {"measurement": "MIC", "setting": "E. faecalis; read-out: MIC E. faecalis", "result": "≥ 500", "unit": "µM"}, {"measurement": "MIC", "setting": "M. aurum", "result": "≥ 125 µg/mL and ≥ 399 µM"}, {"measurement": "IC50", "setting": "[6]", "result": 68.5, "unit": "µM"}, {"measurement": "MIC", "setting": "S. epidermidis; read-out: MIC S. epidermidis", "result": "≥ 500", "unit": "µM"}, {"measurement": "MIC", "setting": "Mtb H37Ra [7]", "result": "≥ 250 µg/mL and ≥ 798 µM"}, {"measurement": "MIC", "setting": "MRSA; read-out: MIC MRSA", "result": "≥ 500", "unit": "µM"}, {"measurement": "MIC", "setting": "A. flavus; read-out: MIC A. flavus", "result": "≥ 500", "unit": "µM"}, {"measurement": "MIC", "setting": "C. albicans; read-out: MIC C. albicans", "result": "≥ 500", "unit": "µM"}, {"measurement": "MIC", "setting": "A. fumigatus; read-out: MIC A. fumigatus", "result": "≥ 500", "unit": "µM"}, {"measurement": "MIC", "setting": "P. aeruginosa; read-out: MIC P. aeruginosa", "result": "≥ 500", "unit": "µM"}, {"measurement": "MIC", "setting": "C. krusei", "result": "≥ 500", "unit": "µM"}]}
{"smiles": "CNC(C)C1CCC(N)C(OC2C(N)CC(N)C(OC3OCC(C)(O)C(NC)C3O)C2O)O1", "note": "(centres unmarked) [gentamicin]", "values": [{"measurement": "MIC", "setting": "E. coli; 48 h, standards, read-out: MIC Escherichia coli", "result": "1 to 2", "unit": "mg/L"}, {"measurement": "MIC", "setting": "S. marcescens; 48 h, standards, read-out: MIC Serratia marcescens", "result": 2, "unit": "mg/L"}, {"measurement": "MIC", "setting": "S. aureus; 48 h, standards, read-out: MIC Staphylococcus aureus", "result": 1, "unit": "mg/L"}, {"measurement": "MIC", "setting": "K. pneumoniae; 48 h, standards, read-out: MIC Klebsiella pneumonia", "result": "> 8", "unit": "mg/L"}, {"measurement": "MIC", "setting": "E. faecalis; 48 h, standards, read-out: MIC Enterococcus faecalis", "result": 8, "unit": "mg/L"}, {"measurement": "MIC", "setting": "S. epidermidis; 48 h, standards, read-out: MIC Staphylococcus epidermidis", "result": "> 8", "unit": "mg/L"}, {"measurement": "MIC", "setting": "MRSA; 48 h, read-out: MIC Staphylococcus aureus methicillin resistant", "result": "16 to 32", "unit": "mg/L"}, {"measurement": "MIC", "setting": "P. aeruginosa; 48 h, standards, read-out: MIC Pseudomonas aeruginosa", "result": 0.5, "unit": "mg/L"}]}
{"smiles": "NC(=O)c1cnccn1", "note": "[PZA, pyrazinamide, reference compound]", "values": [{"measurement": "MIC", "setting": "M. smegmatis", "result": "≥ 500", "unit": "mg/L"}, {"measurement": "MIC for Mtb H37Ra", "setting": "Mtb H37Ra [1]; acidic pH, Figure 2", "result": "< 3.91", "unit": "mg/L"}, {"measurement": "MIC for Mtb H37Ra", "setting": "Mtb H37Ra [1]; neutral pH, Figure 2", "result": "> 500", "unit": "mg/L"}, {"measurement": "IC50", "setting": "HepG2 cell line; HepG2, 24 h", "result": "> 1000", "unit": "µM"}, {"measurement": "MIC", "setting": "M. aurum", "result": "≥ 500", "unit": "mg/L"}, {"measurement": "MIC", "setting": "Mtb H37Ra [7]", "result": "≥ 500 µg/mL and ≥ 4060 µM"}]}
